From ChEMBL document CHEMBL3774345, “Synthesis of new diarylamides with pyrimidinyl pyridine scaffold and evaluation of their anti-proliferative effect on cancer cell lines” (Bioorg Med Chem Lett, 2016)

Tests used:
Format in all cases: functional
[1] = tested on: NCI-H226; experiment: Cytotoxicity against human NCI-H226 cells assessed as cell growth at 10 uM after 24 hrs by SRB assay; conditions: NCI-H226, 24 h, read-out: Activity
[2] = tested on: MCF7; experiment: Cytotoxicity against human MCF7 cells assessed as cell growth at 10 uM after 24 hrs by SRB assay; conditions: MCF7, 24 h, read-out: Activity
[3] = tested on: SK-MEL-28; experiment: Cytotoxicity against human SK-MEL-28 cells assessed as cell growth at 10 uM after 24 hrs by SRB assay; conditions: SK-MEL-28, 24 h, read-out: Activity
[4] = tested on: EKVX; experiment: Cytotoxicity against human EKVX cells assessed as cell growth at 10 uM after 24 hrs by SRB assay; conditions: read-out: Activity
[5] = Cytotoxicity against human PC3 cells assessed as cell growth at 10 uM after 24 hrs by SRB assay; conditions: PC-3, 24 h, read-out: Activity
[6] = tested on: SK-MEL-5; experiment: Cytotoxicity against human SK-MEL-5 cells assessed as cell growth at 10 uM after 24 hrs by SRB assay; conditions: SK-MEL-5, 24 h, read-out: Activity
[7] = Cytotoxicity against human Caki1 cells assessed as cell growth at 10 uM after 24 hrs by SRB assay; conditions: CAKI-1, 24 h, read-out: Activity
[8] = Cytotoxicity against human SKOV3 cells assessed as cell growth at 10 uM after 24 hrs by SRB assay; conditions: SK-OV-3, 24 h, read-out: Activity
[9] = Cytotoxicity against human HCT116 cells assessed as cell growth at 10 uM after 24 hrs by SRB assay; conditions: HCT-116, 24 h, read-out: Activity
[10] = tested on: CCRF-CEM; experiment: Cytotoxicity against human CCRF-CEM cells assessed as cell growth at 10 uM after 24 hrs by SRB assay; conditions: read-out: Activity
[11] = Cytotoxicity against human OVCAR3 cells assessed as cell growth at 10 uM after 24 hrs by SRB assay; conditions: OVCAR-3, 24 h, read-out: Activity
[12] = tested on: NCI-H460; experiment: Cytotoxicity against human NCI-H460 cells assessed as cell growth at 10 uM after 24 hrs by SRB assay; conditions: NCI-H460, 24 h, read-out: Activity
[13] = tested on: NCI-H322M; experiment: Cytotoxicity against human NCI-H322M cells assessed as cell growth at 10 uM after 24 hrs by SRB assay; conditions: read-out: Activity
[14] = Cytotoxicity against human HCC2998 cells assessed as cell growth at 10 uM after 24 hrs by SRB assay; conditions: HCC 2998, 24 h, read-out: Activity
[15] = tested on: 786-0; experiment: Cytotoxicity against human 786-0 cells assessed as cell growth at 10 uM after 24 hrs by SRB assay; conditions: 786-0, 24 h, read-out: Activity
[16] = Cytotoxicity against human Hs 578T cells assessed as cell growth at 10 uM after 24 hrs by SRB assay; conditions: read-out: Activity
[17] = Cytotoxicity against human SNB19 cells assessed as cell growth at 10 uM after 24 hrs by SRB assay; conditions: SNB-19, 24 h, read-out: Activity
[18] = Cytotoxicity against human RXF393 cells assessed as cell growth at 10 uM after 24 hrs by SRB assay; conditions: RXF 393, 24 h, read-out: Activity
[19] = Cytotoxicity against human HCT15 cells assessed as cell growth at 10 uM after 24 hrs by SRB assay; conditions: HCT-15, 24 h, read-out: Activity
[20] = Cytotoxicity against human LOXIMVI cells assessed as cell growth at 10 uM after 24 hrs by SRB assay; conditions: LOX IMVI, read-out: Activity
[21] = Cytotoxicity against human SW620 cells assessed as cell growth at 10 uM after 24 hrs by SRB assay; conditions: SW-620, 24 h, read-out: Activity
[22] = tested on: MDA-MB-231; experiment: Cytotoxicity against human MDA-MB-231 cells assessed as cell growth at 10 uM after 24 hrs by SRB assay; conditions: MDA-MB-231, 24 h, read-out: Activity
[23] = Cytotoxicity against human OVCAR4 cells assessed as cell growth at 10 uM after 24 hrs by SRB assay; conditions: OVCAR-4, 24 h, read-out: Activity
[24] = tested on: T47D; experiment: Cytotoxicity against human T47D cells assessed as cell growth at 10 uM after 24 hrs by SRB assay; conditions: read-out: Activity
[25] = Cytotoxicity against human OVCAR5 cells assessed as cell growth at 10 uM after 24 hrs by SRB assay; conditions: OVCAR-5, 24 h, read-out: Activity
[26] = Cytotoxicity against human RPMI8226 cells assessed as cell growth at 10 uM after 24 hrs by SRB assay; conditions: RPMI-8226, 24 h, read-out: Activity
[27] = Cytotoxicity against human UACC257 cells assessed as cell growth at 10 uM after 24 hrs by SRB assay; conditions: UACC-257, 24 h, read-out: Activity
[28] = Cytotoxicity against human COLO205 cells assessed as cell growth at 10 uM after 24 hrs by SRB assay; conditions: COLO 205, 24 h, read-out: Activity
[29] = Cytotoxicity against human HOP92 cells assessed as cell growth at 10 uM after 24 hrs by SRB assay; conditions: HOP-92, 24 h, read-out: Activity
[30] = Cytotoxicity against human IGROV1 cells assessed as cell growth at 10 uM after 24 hrs by SRB assay; conditions: IGROV-1, 24 h, read-out: Activity
[31] = Cytotoxicity against human UACC62 cells assessed as cell growth at 10 uM after 24 hrs by SRB assay; conditions: UACC-62, 24 h, read-out: Activity
[32] = Cytotoxicity against human SNB75 cells assessed as cell growth at 10 uM after 24 hrs by SRB assay; conditions: SNB-75, 24 h, read-out: Activity
[33] = tested on: K562; experiment: Cytotoxicity against human K562 cells assessed as cell growth at 10 uM after 24 hrs by SRB assay; conditions: K562, 24 h, read-out: Activity
[34] = tested on: NCI-H522; experiment: Cytotoxicity against human NCI-H522 cells assessed as cell growth at 10 uM after 24 hrs by SRB assay; conditions: NCI-H522, 24 h, read-out: Activity
[35] = Cytotoxicity against human SF268 cells assessed as cell growth at 10 uM after 24 hrs by SRB assay; conditions: SF-268, 24 h, read-out: Activity
[36] = tested on: A549; experiment: Cytotoxicity against human A549 cells assessed as cell growth at 10 uM after 24 hrs by SRB assay; conditions: A549, 24 h, read-out: Activity
[37] = Cytotoxicity against human HOP62 cells assessed as cell growth at 10 uM after 24 hrs by SRB assay; conditions: HOP-62, 24 h, read-out: Activity
[38] = tested on: SK-MEL-2; experiment: Cytotoxicity against human SK-MEL-2 cells assessed as cell growth at 10 uM after 24 hrs by SRB assay; conditions: SK-MEL-2, 24 h, read-out: Activity
[39] = tested on: A498; experiment: Cytotoxicity against human A498 cells assessed as cell growth at 10 uM after 24 hrs by SRB assay; conditions: A498, 24 h, read-out: Activity

O=C(Nc1cc(-c2cccnc2)nc(NCCCN2CCOCC2)n1)c1cc(Br)cc(C(F)(F)F)c1
growth at 10 µM [1]: 73.8% | growth at 10 µM [2]: 38.6% | growth at 10 µM [3]: -49.8% | growth at 10 µM [4]: 77.4% | growth at 10 µM [5]: 57.7% | growth at 10 µM [6]: 3.78% | growth at 10 µM [7]: 61.8% | growth at 10 µM [8]: 92.3% | growth at 10 µM [9]: 35.7% | growth at 10 µM [10]: 42.8% | growth at 10 µM [11]: 80% | growth at 10 µM [12]: 56% | growth at 10 µM [13]: 58.2% | growth at 10 µM [14]: 37.8% | growth at 10 µM [15]: 51.8% | growth at 10 µM [16]: 54% | growth at 10 µM [17]: 69.6% | growth at 10 µM [18]: 52.8% | growth at 10 µM [19]: 6.87% | growth at 10 µM [20]: -16.8% | growth at 10 µM [21]: 75.4% | growth at 10 µM [22]: 32.7% | growth at 10 µM [23]: 62.2% | growth at 10 µM [24]: 46.4% | growth at 10 µM [25]: 81.4% | growth at 10 µM [26]: 30.2% | growth at 10 µM [27]: -27.1% | growth at 10 µM [28]: 1.11% | growth at 10 µM [29]: 34.6% | growth at 10 µM [30]: 63.1% | growth at 10 µM [31]: -6.13% | growth at 10 µM [32]: 72.1% | growth at 10 µM [33]: 8.84% | growth at 10 µM [34]: 60.2% | growth at 10 µM [35]: 60.9% | growth at 10 µM [36]: 67.9% | growth at 10 µM [37]: 69.4% | growth at 10 µM [38]: 81.3% | growth at 10 µM [39]: 53.7%

Cc1cc(Cl)ccc1C(=O)Nc1cc(-c2cccnc2)nc(NCCCN2CCOCC2)n1
growth at 10 µM [1]: 77.6% | growth at 10 µM [2]: 90.1% | growth at 10 µM [3]: 95.3% | growth at 10 µM [4]: 99.8% | growth at 10 µM [5]: 107% | growth at 10 µM [6]: 92.7% | growth at 10 µM [7]: 101% | growth at 10 µM [8]: 93.7% | growth at 10 µM [9]: 99.8% | growth at 10 µM [10]: 101% | growth at 10 µM [11]: 111% | growth at 10 µM [12]: 110% | growth at 10 µM [13]: 102% | growth at 10 µM [14]: 100% | growth at 10 µM [15]: 77.2% | growth at 10 µM [16]: 96.9% | growth at 10 µM [17]: 89.8% | growth at 10 µM [18]: 101% | growth at 10 µM [19]: 104% | growth at 10 µM [20]: 109% | growth at 10 µM [21]: 99% | growth at 10 µM [22]: 97.3% | growth at 10 µM [23]: 97.7% | growth at 10 µM [24]: 96.4% | growth at 10 µM [25]: 94.1% | growth at 10 µM [26]: 104% | growth at 10 µM [27]: 95% | growth at 10 µM [28]: 101% | growth at 10 µM [29]: 95.9% | growth at 10 µM [30]: 109% | growth at 10 µM [31]: 102% | growth at 10 µM [32]: 91.3% | growth at 10 µM [33]: 113% | growth at 10 µM [34]: 82.8% | growth at 10 µM [35]: 101% | growth at 10 µM [36]: 87.7% | growth at 10 µM [37]: 91.5% | growth at 10 µM [38]: 106% | growth at 10 µM [39]: 95.2%
